Source: US6175020A, “Spirodiamino acid scaffold for combinatorial synthesis” (Pharmacopeia, Inc., priority 1999, dated 2001)

Target: plasmepsin II (Plasmodium falciparum, UniProt P46925)
Assay: Biological Assay for Plasmepsin II (EDANS fluorescence)
Type: biochemical
Conditions: 4 nM plasmepsin II, 6 μM plasmepsin substrate, pH 5.0, 10 minutes at 25° C.
Description: Biological Assay for Plasmepsin II
The assay mix contained 50 mM sodium acetate (pH 5.0), 1 mg/ml BSA, 0.01% Tween 20, 12.5% glycerol, 18% DMSO and 12 μM plasmepsin substrate. Twenty five μL of the assay mix is added to each well of the 96-well microtiter plate containing dried down bead eluate or empty control wells. The plates are then sonicated and mixed. Then 25 μL of 8 nM plasmepsin II which is in 50 mM sodium acetate (pH 5.0), 1 mg/ml BSA, 0.01% Tween 20, and 12.5% glycerol, is added to the assay mix. The final concentrations are 4 nM plasmepsin II, 6 μM plasmepsin substrate, 9% DMSO, 50 mM sodium acetate (pH 5.0), 1 mg/ml BSA, 0.01% Tween 20, and 12.5% glycerol. The reaction is incubated for 10 minutes at 25° C. and then quenched by the addition of 25 μL of 1 M Tris (pH 8.5) and 50% DMSO to achieve a final concentration of 0.33 M Tris and 23% DMSO. The EDANS fluorescence was measured using the Tecan, SLT FLUOSTAR® fluorescence plate reader with an excitation filter of 350 nm and an emission filter 510 nm. The background was determined by 25 μL of 50 mM sodium acetate (pH 5.0), 1 mg/ml BSA, 0.01% Tween 20, and 12.5% glycerol without enzyme. Compound 23 was active at <1 millimolar concentration.

Sequence of plasmepsin II (P46925 125-453): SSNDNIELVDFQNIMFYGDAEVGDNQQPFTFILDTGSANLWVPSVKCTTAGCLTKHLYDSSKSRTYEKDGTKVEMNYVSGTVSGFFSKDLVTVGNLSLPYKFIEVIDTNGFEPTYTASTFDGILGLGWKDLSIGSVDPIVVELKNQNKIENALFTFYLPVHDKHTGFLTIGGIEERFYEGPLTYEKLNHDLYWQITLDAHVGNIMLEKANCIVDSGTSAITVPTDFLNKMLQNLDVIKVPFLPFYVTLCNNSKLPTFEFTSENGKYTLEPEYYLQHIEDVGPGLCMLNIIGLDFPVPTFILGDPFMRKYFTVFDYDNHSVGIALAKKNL

C=CCOC(=O)N1C(CC(=O)NCCc2cc(OC)cc(OC)c2)CCC12CCCC2CNC(=O)C[C@H](O)[C@H](CC(C)C)NC(=O)OC(C)(C)C (relative stereo) [Compound 23]
concentration at which compound was active: < 1 millimolar
IC50 (read-out: IC50 (plasmepsin inhibitor)): < 1000 µM
